Measurements as given in ChEMBL document CHEMBL4834434, “Discovery of Novel and Potent N-Methyl-d-aspartate Receptor Positive Allosteric Modulators with Antidepressant-like Activity in Rodent Models” (J Med Chem, 2021).
Calls of active or inactive are those of the source. The rule behind the calls is not given here.

Assays:
[1] = Brain to blood partition coefficient of the compound; type: physicochemical, tissue-based; details: read-out: logBB (converted)
[2] = molecular target: T1, Glutamate NMDA receptor (Mus musculus) (UniProt P35436+Q91ZU9+Q03391+P35438+Q01097+Q01098+A2AIR5); assay: Positive allosteric modulation of C57BL/6 mouse NMDA receptor assessed as fold change in compound potentiated NMDA-induced current relative to NMDA current alone at 30 uM measured after 15 to 30 mins by patch-clamp method; type: tissue-based; details: Brain, filed as positive allosteric modulator, time 15-30 min
Mus musculus [3] = assay: Antidepressant activity in ICR mouse aassessed as inhibition of apomorphine-induced climbing behaviour at 10 mg/kg, ip administered prior to APO challenge and measured after 30 mins; type: functional, organism-based
[4] = Cytotoxicity against mouse L929 cells assessed as cell growth inhibition at 60 uM measured after 48 hrs by CCK8 assay relative to control; type: cell-based
[5] = Effect on locomotor activity in ICR mouse assessed as hyperlocomotion at 10 mg/kg, ip measured after 90 mins; type: ADME, organism-based; details: in vivo, 1.5 h
[6] = Cytotoxicity against African green monkey Vero cells assessed as cell growth inhibition at 120 uM measured after 48 hrs by CCK8 assay relative to control; type: cell-based; details: chlorocebus sabaeus
[7] = Cytotoxicity against human HEK293 cells assessed as cell growth inhibition at 60 uM measured after 48 hrs by CCK8 assay relative to control; type: cell-based
[8] = Cytotoxicity against human HEK293 cells assessed as cell growth inhibition at 120 uM measured after 48 hrs by CCK8 assay relative to control; type: cell-based
[9] = Effect on locomotor activity in ICR mouse assessed as hypolocomotion at 10 mg/kg, ip measured after 90 mins; type: ADME, organism-based; details: in vivo, 1.5 h
hERG (KCNH2) [10] = molecular target: T2, hERG (KCNH2) (Homo sapiens, UniProt Q12809); assay: Inhibition of human ERG expressed in CHO cells at 100 uM with holding potential at -80 to -60 mV for 500s followed by raise in potential at +30 mV for 2 sec and subsequent repolarization to -60 mV for 2 sec by whole-cell patch clamp method relative to control; type: cell-based; details: CHO cells expressing human ERG
T2 sequence (Q12809 whole entry): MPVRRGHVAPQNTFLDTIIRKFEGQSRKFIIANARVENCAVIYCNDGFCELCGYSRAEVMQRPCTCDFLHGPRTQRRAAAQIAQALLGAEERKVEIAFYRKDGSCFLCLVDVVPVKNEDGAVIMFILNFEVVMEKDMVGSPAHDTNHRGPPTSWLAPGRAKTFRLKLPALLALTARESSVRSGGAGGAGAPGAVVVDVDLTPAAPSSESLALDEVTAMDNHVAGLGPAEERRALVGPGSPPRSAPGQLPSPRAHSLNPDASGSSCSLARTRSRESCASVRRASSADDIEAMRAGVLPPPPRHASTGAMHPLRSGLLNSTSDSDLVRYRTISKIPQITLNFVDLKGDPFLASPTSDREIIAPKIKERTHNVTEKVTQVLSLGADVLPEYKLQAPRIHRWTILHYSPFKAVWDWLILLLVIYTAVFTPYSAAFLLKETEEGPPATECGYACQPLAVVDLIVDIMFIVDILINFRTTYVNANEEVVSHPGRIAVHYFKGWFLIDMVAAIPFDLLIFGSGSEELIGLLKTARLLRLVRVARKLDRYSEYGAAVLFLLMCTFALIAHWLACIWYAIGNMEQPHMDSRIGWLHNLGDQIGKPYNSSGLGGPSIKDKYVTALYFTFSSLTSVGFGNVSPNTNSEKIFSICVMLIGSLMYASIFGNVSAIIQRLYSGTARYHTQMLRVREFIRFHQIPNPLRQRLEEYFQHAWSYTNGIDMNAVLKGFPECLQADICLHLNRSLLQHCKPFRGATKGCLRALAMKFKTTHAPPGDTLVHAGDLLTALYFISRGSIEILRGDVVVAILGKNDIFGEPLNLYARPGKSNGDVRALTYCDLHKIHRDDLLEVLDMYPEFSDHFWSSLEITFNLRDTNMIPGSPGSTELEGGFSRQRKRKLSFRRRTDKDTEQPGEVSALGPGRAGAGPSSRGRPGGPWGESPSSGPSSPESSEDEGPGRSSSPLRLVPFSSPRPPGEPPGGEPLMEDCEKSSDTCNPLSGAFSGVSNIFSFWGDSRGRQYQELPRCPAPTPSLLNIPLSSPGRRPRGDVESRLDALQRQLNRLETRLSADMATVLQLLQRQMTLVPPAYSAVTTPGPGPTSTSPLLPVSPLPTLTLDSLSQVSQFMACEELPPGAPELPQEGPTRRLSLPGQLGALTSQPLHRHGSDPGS

Glutamate NMDA receptor = assay: Positive allosteric modulation of C57BL/6 mouse NMDA receptor assessed as potentiation of NMDA-induced current in presence of saturating glutamate by patch-clamp method; type: tissue-based, Brain
[11] = Cytotoxicity against mouse L929 cells assessed as cell growth inhibition at 120 uM measured after 48 hrs by CCK8 assay relative to control; type: cell-based
hERG (KCNH2) [12] = molecular target: T2, hERG (KCNH2); assay: Inhibition of human ERG expressed in CHO cells at 30 uM with holding potential at -80 to -60 mV for 500s followed by raise in potential at +30 mV for 2 sec and subsequent repolarization to -60 mV for 2 sec by whole-cell patch clamp method relative to control; type: cell-based; details: CHO cells expressing human ERG
[13] = Cytotoxicity against African green monkey Vero cells assessed as cell growth inhibition at 60 uM measured after 48 hrs by CCK8 assay relative to control; type: cell-based; details: chlorocebus sabaeus
[14] = molecular target: T1, Glutamate NMDA receptor (Mus musculus); assay: Positive allosteric modulation of C57BL/6 mouse NMDA receptor assessed as fold change in compound potentiated NMDA-induced current relative to NMDA current alone in presence of saturating glutamate by patch-clamp method; type: tissue-based; details: Brain, filed as positive allosteric modulator
Mus musculus [15] = assay: Antidepressant activity in ICR mouse assessed as decrease in immobility time at 3 to 10 mg/kg, ip measured after 26 mins by forced swim test; type: functional, organism-based; details: dose 3-10 mg/kg
Mus musculus [16] = assay: Antidepressant activity in ICR mouse assessed as decrease in immobility time at 30 mg/kg, ip measured after 26 mins by forced swim test; type: functional, organism-based

Structure (SMILES)	Kp [1]	fold change (FC) [2]	other results
O=C(Nc1ccc(Cl)cc1Cl)c1ccc(Cn2nc(C(F)(F)F)cc2C(F)(F)F)o1	3.98	0.4	–
Cc1cc(C)n(Cc2ccc(C(=O)Nc3ccc(Cl)cc3CO)o2)n1	0.398	1.1	–
Cc1cc(C)n(Cc2ccc(C(=O)Nc3cc(Cl)cc(Cl)c3)s2)n1	1.26	1.2	–
Cc1cc(C)n(Cc2ccc(C(=O)Nc3ccc(-c4cccnc4)cc3)s2)n1	0.398	14.3	Activity (Mus musculus [3]): inactive; inhibition at 48 h, 60 µM [4]: 27.5%; Activity [5]: Non-Toxic; inhibition at 48 h, 120 µM [6]: -7.5%; inhibition at 48 h, 60 µM [7]: 6.5%; inhibition at 48 h, 120 µM [8]: 18%; Activity [9]: Non-Toxic; inhibition at 2 s, 100 µM (hERG (KCNH2) [10]): 53.4%; EC50 (Glutamate NMDA receptor): 3.6 µM; inhibition at 48 h, 120 µM [11]: 28.6%; inhibition at 2 s, 30 µM (hERG (KCNH2) [12]): 44.2%; inhibition at 48 h, 60 µM [13]: -3.8%; fold change (FC) [14]: 12.8; Activity (Mus musculus [15]): inactive; Activity (Mus musculus [16]): Active
Cc1cc(C)n(Cc2ccc(C(=O)Nc3ccc(-c4cccnc4)cc3C)s2)n1	0.251	1.8	–
Cc1cc(C)n(Cc2ccc(C(=O)Nc3ccc4cc[nH]c4c3)s2)n1	0.316	8.9	Activity (Mus musculus [3]): inactive; inhibition at 48 h, 60 µM [4]: 2.8%; Activity [5]: Non-Toxic; inhibition at 48 h, 120 µM [6]: -0.4%; inhibition at 48 h, 60 µM [7]: -7.4%; inhibition at 48 h, 120 µM [8]: 2.5%; Activity [9]: Non-Toxic; inhibition at 2 s, 100 µM (hERG (KCNH2) [10]): 46.7%; EC50 (Glutamate NMDA receptor): 9 µM; inhibition at 48 h, 120 µM [11]: 25.5%; inhibition at 2 s, 30 µM (hERG (KCNH2) [12]): 33.6%; inhibition at 48 h, 60 µM [13]: -3.2%; fold change (FC) [14]: 10.5; Activity (Mus musculus [16]): inactive
Cc1cc(C)n(Cc2ccc(C(=O)Nc3ccc4ccccc4c3)s2)n1	0.631	1.8	–
Cc1cc(C)n(Cc2ccc(C(=O)Nc3ccc(Cl)cc3C)o2)n1	0.724	3.2	–
Cc1ccc(C(=O)Nc2ccc(Br)cc2C)o1	1.32	-0.3	–
Cc1nc2n(c(=O)c1CCN1CCC(c3noc4cc(F)ccc34)CC1)CCCC2	–	–	Activity (Mus musculus [3]): Active
Cc1cc(C)n(Cc2ccc(C(=O)Nc3ccc(Br)cc3C)s2)n1	1.26	1.5	–
Cc1cc(C)n(Cc2ccc(C(=O)Nc3ccccc3CCO)o2)n1	0.126	0.4	–
Cc1cc(C)n(Cc2ccc(C(=O)Nc3ccc(-c4ccccc4)cc3C)s2)n1	0.501	2.8	–
Cc1cc(Br)ccc1NC(=O)c1ccc(Cn2nc(C(F)(F)F)cc2C(F)(F)F)o1	2.51	10.7	–
Cc1cc(C)n(Cc2ccc(C(=O)Nc3ccc(F)c(C)c3)s2)n1	0.794	2.4	–
Cc1cc(C)n(Cc2ccc(C(=O)Nc3ccc(Cl)cc3Cl)o2)n1	1	4.7	–
Cc1cc(C)n(Cc2ccc(C(=O)Nc3ccc(Cl)cc3C)s2)n1	1.26	-0.2	–
Cc1cc(C)n(Cc2ccc(C(=O)Nc3ccc(Cl)cc3C(=O)NCCCO)o2)n1	0.0331	2.9	–
Cc1cc(C)n(Cc2ccc(C(=O)Nc3cccnc3)o2)n1	0.251	2.9	–

Structure (SMILES)	Kp [1]	fold change (FC) [2]	other results
Cc1cc(C)n(Cc2ccc(C(=O)Nc3ccc4cccnc4c3)s2)n1	0.316	1.1	–
Cc1cc(C)n(Cc2ccc(C(=O)Nc3ccc(F)c(Cl)c3)s2)n1	1.26	3.5	–
Cc1cc(Cl)ccc1NC(=O)c1ccc(Cn2nc(C(F)(F)F)cc2C(F)(F)F)o1	2.51	0.7	–
CCc1cc(Br)ccc1NC(=O)c1ccc(Cn2nc(C)cc2C)o1	0.631	2.6	–
COC(=O)c1cc(Cl)ccc1NC(=O)c1ccc(Cn2nc(C)cc2C)o1	0.158	0.1	–
Cc1cc(C)n(Cc2ccc(C(=O)Nc3ccccc3)o2)n1	0.398	0.1	–
Cc1cc(C)n(Cc2ccc(C(=O)Nc3ccc(F)cc3Cl)o2)n1	0.794	0.9	–
Cc1cc(Br)ccc1NC(=O)c1ccc(Cl)o1	2.09	1.2	–
Cc1cc(C)n(Cc2ccc(C(=O)Nc3ccccc3-c3ccccc3)o2)n1	0.398	0.3	–
COc1cc(NC(=O)c2ccc(Cn3nc(C(F)(F)F)cc3C(F)(F)F)o2)cc(OC)c1	1.26	2.5	–
Cc1cc(C)n(Cc2ccc(C(=O)Nc3ccc(Br)cc3)o2)n1	0.646	1.2	–
O=C(Nc1ccc(Cl)c(Cl)c1)c1ccc(Cn2nc(C(F)(F)F)cc2C(F)(F)F)o1	3.98	2.9	–
CCCCNC(=O)c1cc(Cl)ccc1NC(=O)c1ccc(Cn2nc(C)cc2C)o1	0.257	-0.6	–
COC(=O)c1cc(F)ccc1NC(=O)c1ccc(Cn2nc(C(F)(F)F)cc2C(F)(F)F)o1	0.794	1.9	–
Cc1cc(NC(=O)c2ccc(Cn3nc(C(F)(F)F)cc3C(F)(F)F)o2)ccc1F	2.51	5.5	–
Cc1cc(C)n(Cc2ccc(C(=O)Nc3ccccc3C)o2)n1	0.49	1.2	–
Cc1cc(C)n(Cc2ccc(C(=O)Nc3ccc4nc[nH]c4c3)s2)n1	0.158	0.1	–
Cc1cc(C(F)(F)F)n(Cc2ccc(C(=O)Nc3ccc(Cl)cc3C)o2)n1	1.58	7.7	–
Cc1cc(C)n(Cc2ccc(C(=O)Nc3ccc(F)cc3C)o2)n1	0.631	1.9	–

Structure (SMILES)	Kp [1]	fold change (FC) [2]	other results
Cc1cc(C)n(Cc2ccc(C(=O)Nc3ccc(Cl)c(F)c3)s2)n1	1.26	6	–
Cc1cc(C)n(Cc2ccc(C(=O)Nc3ccc(Cl)cc3C(=O)NCCCCO)o2)n1	0.17	1.7	–
CNc1ccccc1NC(=O)c1ccc(Cn2nc(C)cc2C)o1	0.316	0.8	–
Cc1cc(F)ccc1NC(=O)c1ccc(Cn2nc(C(F)(F)F)cc2C(F)(F)F)o1	2.51	2.4	–
Cc1cc(C)n(Cc2ccc(C(=O)Nc3ccc4cnccc4c3)s2)n1	0.316	-0.2	–
COC(=O)c1cc(Br)ccc1NC(=O)c1ccc(Cn2nc(C)cc2C)o1	0.251	2.7	–
Cc1cc(C)n(Cc2ccc(C(=O)Nc3ccc(-c4ccccc4)cc3)o2)n1	0.398	6.7	–
Cc1cc(C(F)(F)F)n(Cc2ccc(C(=O)Nc3ccc(Br)cc3C)o2)n1	1.58	1.2	–
Cc1cc(C)n(Cc2ccc(C(=O)Nc3ccc(-c4ccccc4)cc3)s2)n1	0.398	2.8	–
Cc1cc(C)n(Cc2ccc(C(=O)Nc3ccc(Br)cc3Cl)o2)n1	1	1.7	–
Cc1cc(C)n(Cc2ccc(C(=O)Nc3ccc(Cl)cc3C(=O)NCc3ccccc3)o2)n1	0.166	2.9	–
COc1cc(NC(=O)c2ccc(Cn3nc(C)cc3C)s2)cc(OC)c1	0.398	0.4	–
Cc1cc(C)n(Cc2ccc(C(=O)Nc3ccc4[nH]c(=O)[nH]c4c3)s2)n1	0.0251	0.3	–
Cc1cc(C)n(Cc2ccc(C(=O)Nc3ccc4ccccc4c3)o2)n1	0.398	3.2	–
Cc1cc(C)n(Cc2ccc(C(=O)Nc3ccc(Cl)cc3C(=O)Nc3ccccc3)o2)n1	0.195	1.2	–
COC(=O)c1cc(F)ccc1NC(=O)c1ccc(Cn2nc(C)cc2C)o1	0.158	1.5	–
Cc1cc(C)n(Cc2ccc(C(=O)Nc3cc(F)cc(F)c3)s2)n1	1	5	–
Cc1cc(Br)ccc1NC(=O)c1ccco1	1.41	-0.2	–
CCOc1ccc(NC(=O)c2ccc(Cn3nc(C)cc3C)s2)cc1OCC	0.251	2.7	–
